Patent US7462600B2, “Macrolides” (Pfizer Inc, priority 2004, dated 2008)
Values after ≈ are worked out from the molar mass of the structure shown. Where two headings read alike, the source gives them in different places.

How the values were obtained:
Type in all cases: cell-based
[1] = system: Streptococcus pyogenes 1079; experiment: MIC, microtiter broth dilution (NCCLS M100-S14), S. pyogenes 1079 (ermB)
In short: (§1)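 DMSO stocks, 40 mg/ml; trays scored for MIC following M100-S14 (NCCLS).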

[2] = system: Haemophilus influenzae 1218; experiment: MIC, microtiter broth dilution (NCCLS M100-S14), H. influenzae 1218 (susceptible)
In short: as §1

[3] = system: Streptococcus pneumoniae 1095; details: microtiter broth dilution
In short: as §1

[4] = system: Streptococcus pneumoniae 1175; details: microtiter broth dilution
In short: as §1

[5] = system: Streptococcus pneumoniae 1016; experiment: MIC, microtiter broth dilution (NCCLS M100-S14), S. pneumoniae 1016 (susceptible)
In short: as §1

[6] = H. influenzae 1218 (susceptible)
[7] = S. pneumoniae 1016 (susceptible)

Row | Structure (SMILES) | MIC S. pyogenes 1079 ([1]; S. pyogenes 1079 (ermB)) [µg/mL] | MIC H. influenzae 1218 [2, 6] [µg/mL] | MIC S. pneumo. 1095 ([3]; S. pneumoniae 1095 (ermB)) [µg/mL] | MIC S. pneumo. 1175 ([4]; S. pneumoniae 1175 (mefA)) [µg/mL] | MIC S. pneumo. 1016 [5, 7] [µg/mL] | MIC S. pyogenes 1079 ([1]; Streptococcus pyogenes 1079) [µg/mL] | MIC H. influenzae 1218 ([2]; Haemophilus influenzae 1218) [µg/mL] | MIC S. pneumo. 1095 ([3]; Streptococcus pneumoniae 1095) [µg/mL] | MIC S. pneumo. 1175 ([4]; Streptococcus pneumoniae 1175) [µg/mL] | MIC S. pneumo. 1016 ([5]; Streptococcus pneumoniae 1016) [µg/mL]
1 | CCC1OC(=O)C(C)C(=O)C(C)C(OC2OC(C)CC(N(C)C)C2O)C(C)(OC)CC(C)C(=O)C(C)C2N(C3CCN(Cc4ccnc5ncccc45)C3)C(=O)OC12C [Example 9.05, 3-descladinosyl-11,12-dideoxy-6-O-methyl-3-oxo-12,11-(oxycarbonyl-(1-((1,8-naphthyridin-4-yl)-methyl)-(R)-pyrrolidin-3-yl)-imino)erythromycin A] | 8 (≈ 9.71 µM) | 8 (≈ 9.71 µM) | 0.5 (≈ 0.607 µM) | 0.5 (≈ 0.607 µM) | <0.06 | – | – | – | – | –
2 | CCC1OC(=O)C(C)C(=O)C(C)C(OC2OC(C)CC(N(C)C)C2O)C(C)(OC)CC(C)C(=O)C(C)C2N(C3CN(S(=O)(=O)c4ccc5nn(C)cc5c4)C3)C(=O)OC12C (centres unmarked) [Example 3.96, 3-descladinosyl-11,12-dideoxy-6-O-methyl-3-oxo-12,11-(oxycarbonyl-(1-(2-methyl-2H-indazole-5-sulfonyl)-azetidin-3-yl)-imino)erythromycin A] | – | – | – | – | – | 1 (≈ 1.16 µM) | 1 (≈ 1.16 µM) | 0.12 (≈ 0.139 µM) | 2 (≈ 2.32 µM) | <0.06
3 | CCC1OC(=O)C(C)C(=O)C(C)C(OC2OC(C)CC(N(C)C)C2O)C(C)(OC)CC(C)C(=O)C(C)C2N(CC3CCN(Cc4cnc(-c5ccccc5)[nH]4)CC3)C(=O)OC12C (centres unmarked) [15.08] | >64.00 | 2 (≈ 2.31 µM) | >64.00 | 1 (≈ 1.15 µM) | <0.06 | – | – | – | – | –
4 | CC[C@H]1OC(=O)[C@H](C)C(=O)[C@H](C)[C@@H](O[C@@H]2O[C@H](C)C[C@H](N(C)C)[C@H]2O)[C@](C)(OC)C[C@@H](C)C(=O)[C@H](C)[C@H]2N(CC3(O)CN(S(=O)(=O)c4cccc5cnccc45)C3)C(=O)O[C@]12C [7.14] | >64.00 | 0.25 (≈ 0.281 µM) | 1 (≈ 1.12 µM) | 0.12 (≈ 0.135 µM) | <0.06 | – | – | – | – | –
5 | CCC1OC(=O)C(C)C(=O)C(C)C(OC2OC(C)CC(N(C)C)C2O)C(C)(OC)CC(C)C(=O)C(C)C2N(CC3CN(C(=O)c4cccc(C#N)c4)C3)C(=O)OC12C (centres unmarked) [4.06] | – | – | – | – | – | >100.00 | 3.12 (≈ 3.85 µM) | 12.5 (≈ 15.4 µM) | 0.39 (≈ 0.481 µM) | 0.02 (≈ 0.0247 µM)
6 | CCC1OC(=O)C(C)C(=O)C(C)C(OC2OC(C)CC(N(C)C)C2O)C(C)(OC)CC(C)C(=O)C(C)C2N(CC3CCCN3Cc3cccc(OC)n3)C(=O)OC12C (centres unmarked) [12.01] | >64.00 | 8 (≈ 9.79 µM) | 2 (≈ 2.45 µM) | 1 (≈ 1.22 µM) | <0.06 | – | – | – | – | –
7 | CCC1OC(=O)C(C)C(=O)C(C)C(OC2OC(C)CC(N(C)C)C2O)C(C)(OC)CC(C)C(=O)C(C)C2N(C3CN(S(=O)(=O)c4cn(C)c(C)n4)C3)C(=O)OC12C (centres unmarked) [Example 3.28] | – | – | – | – | – | >64.00 | 1 (≈ 1.21 µM) | <0.06 | 4 (≈ 4.84 µM) | <0.06
8 | CCC1OC(=O)C(C)C(=O)C(C)C(OC2OC(C)CC(N(C)C)C2O)C(C)(OC)CC(C)C(=O)C(C)C2N(C3CN(Cc4ccnc5ncccc45)C3)C(=O)OC12C (centres unmarked) [Example 1.20, 3-descladinosyl-11,12-dideoxy-6-O-methyl-3-oxo-12,11-(oxycarbonyl-(1-((1,8-naphthyridin-4-yl)-methyl)-azetidin-3-yl)-imino)erythromycin A] | – | – | – | – | – | 1 (≈ 1.23 µM) | 0.25 (≈ 0.309 µM) | <0.06 | 0.12 (≈ 0.148 µM) | <0.06
9 | CCC1OC(=O)C(C)C(=O)C(C)C(OC2OC(C)CC(N(C)C)C2O)C(C)(OC)CC(C)C(=O)C(C)C2N(CC3CCN(C(=O)c4cc5ccccn5n4)C3)C(=O)OC12C (centres unmarked) [13.16] | >64.00 | 16 (≈ 19 µM) | >64.00 | 1 (≈ 1.19 µM) | <0.06 | – | – | – | – | –
10 | CCC1OC(=O)C(C)C(=O)C(C)C(OC2OC(C)CC(N(C)C)C2O)C(C)(OC)CC(C)C(=O)C(C)C2N(CC3CCN(Cc4cnc5ccccc5c4)CC3)C(=O)OC12C (centres unmarked) [15.03] | >64.00 | 8 (≈ 9.4 µM) | >64.00 | 0.25 (≈ 0.294 µM) | <0.06 | – | – | – | – | –
11 | CCC1OC(=O)C(C)C(=O)C(C)C(OC2OC(C)CC(N(C)C)C2O)C(C)(OC)CC(C)C(=O)C(C)C2N(C3CN(S(=O)(=O)c4ccc5c(c4)CCC5)C3)C(=O)OC12C (centres unmarked) [Example 3.83] | – | – | – | – | – | 32 (≈ 37.7 µM) | 1 (≈ 1.18 µM) | <0.06 | <0.06 | <0.06
12 | CCC1OC(=O)C(C)C(=O)C(C)C(OC2OC(C)CC(N(C)C)C2O)C(C)(OC)CC(C)C(=O)C(C)C2N(C3CN(S(=O)(=O)c4cccc(-n5cccn5)c4)C3)C(=O)OC12C (centres unmarked) [Example 3.58, 3-descladinosyl-11,12-dideoxy-6-O-methyl-3-oxo-12,11-(oxycarbonyl-(1-(3-(1H-pyrazol-1-yl)benzenesulfonyl)-azetidin-3-yl)-imino)-erythromycin A] | – | – | – | – | – | 4 (≈ 4.58 µM) | 1 (≈ 1.14 µM) | <0.06 | <0.06 | <0.06
13 | CCC1OC(=O)C(C)C(=O)C(C)C(OC2OC(C)CC(N(C)C)C2O)C(C)(OC)CC(C)C(=O)C(C)C2N(C3CN(C(C)c4ccnc5ncccc45)C3)C(=O)OC12C (stereo not drawn) [Example 1.23, 3-descladinosyl-11,12-dideoxy-6-O-methyl-3-oxo-12,11-(oxycarbonyl-(1-(1S-(1,8-naphthyridin4-yl)-ethyl)-azetidin-3-yl)-imino)-erythromycin A] | – | – | – | – | – | 16 (≈ 19.4 µM) | 0.5 (≈ 0.607 µM) | <0.06 | 0.25 (≈ 0.303 µM) | <0.06
14 | CCC1OC(=O)C(C)C(=O)C(C)C(OC2OC(C)CC(N(C)C)C2O)C(C)(OC)CC(C)C(=O)C(C)C2N(CC3CCN(Cc4ccc(-c5ccccn5)cc4)CC3)C(=O)OC12C (centres unmarked) [15.07] | >64.00 | 32 (≈ 36.5 µM) | >64.00 | 1 (≈ 1.14 µM) | <0.06 | – | – | – | – | –
15 | CCC1OC(=O)C(C)C(=O)C(C)C(OC2OC(C)CC(N(C)C)C2O)C(C)(OC)CC(C)C(=O)C(C)C2N(CC3CCCN3C(=O)c3cccn(Cc4ccccc4)c3=O)C(=O)OC12C (centres unmarked) [10.36] | >64.00 | 16 (≈ 17.6 µM) | 4 (≈ 4.41 µM) | 0.5 (≈ 0.551 µM) | <0.06 | – | – | – | – | –
16 | CC[C@H]1OC(=O)[C@H](C)C(=O)[C@H](C)[C@@H](O[C@@H]2O[C@H](C)C[C@H](N(C)C)[C@H]2O)[C@](C)(OC)C[C@@H](C)C(=O)[C@H](C)[C@H]2N(CC3(C)CN(Cc4c[nH]c5ncccc45)C3)C(=O)O[C@]12C [6.03] | – | – | – | – | – | 16 (≈ 19.4 µM) | 0.5 (≈ 0.605 µM) | <0.06 | 0.12 (≈ 0.145 µM) | <0.06
